{
  "source": "patent US10053476B2",
  "about": "“Phosphohistidine and phosphotyrosine analogues” (UNIVERSITY OF SHEFFIELD, priority 2013, dated 2018)",
  "key": {"[1]": {"tested_on": "polyclonal sera raised against 4-phosphopyrazol-1-yl alanine", "experiment": "Dot blot of BSA-glutaraldehyde conjugated analogues with affinity depleted rabbit and rat sera", "assay_type": "binding", "conditions": "BSA-glutaraldehyde conjugated analogue; rabbit and rat sera affinity depleted with histidine-KLH", "protocol": "Solutions of the BSA-amino acid conjugates of histidine, tele-phosphohistidine, and the analogues, were first diluted 1000 fold. These solutions as well as the commercially available solutions of BSA conjugated to phosphoserine, phosphothreonine, and phosphotyrosine were spotted (2 μL) onto a PVDF membrane. Once the spots were dry, the membrane was rinsed with methanol before being blocked in 5% non-fat dry milk in 10 mM Tris-HCl pH 8.0, 17 mM NaCl (TBS), Tween (0.05%) (5% NFDM/TBST) for 1 hour and then incubated with the rat sera raised against the analogue of interest at 1/1000 dilution in 5% NFDM/TBST overnight at 4° C. The membrane was then washed using TBS-Tween (0.05%) 3 times for 15 minutes, before being incubated with a 1/2000 fold dilution of goat anti-rat IgG-HRP conjugate in 5% NFDM/TBST for 60 minutes at room temperature. Membranes were then washed 3 times for 15 minutes using TBS-Tween (0.05%) and then treated with SuperSignal West Dura Chemiluminescent Substrate for 3 minutes. […]\nIn addition, further antibodies against 4-phosphopyrazol-1-yl alanine were raised as described in sections 2.1.1 to 2.1.4 above, and dot blot analysis conducted as described in section 2.5. […] The data establishes that 4-phosphopyrazol-1-yl alanine amide and 4-phosphothiazol-1-yl alanine amide are detected by the polyclonal sera raised against 4-phosphopyrazol-1-yl alanine."}},
  "data": [
    {"compound": "C[C@H](N[SH]1C=NC(P(=O)(O)O)=C1)C(N)=O", "note": "(some centres unmarked) [4-phosphothiazol-1-yl alanine amide]", "values": [
      {"measurement": "detection by polyclonal sera raised against 4-phosphopyrazol-1-yl alanine (dot blot)", "setting": "[1]", "result": "detected"}
    ]},
    {"compound": "N[C@@H](Cc1ccc(P(=O)(O)O)cn1)C(=O)O", "note": "[Compound 6]", "values": [
      {"measurement": "melting point", "result": 270, "unit": "°C"}
    ]},
    {"compound": "N[C@@H](Cn1cc(P(=O)(O)O)cn1)C(=O)O", "note": "[Compound 12]", "values": [
      {"measurement": "melting point", "result": 200, "unit": "°C"}
    ]},
    {"compound": "N[C@@H](Cc1cc(P(=O)(O)O)cs1)C(=O)O", "note": "[Compound 17]", "values": [
      {"measurement": "melting point", "result": 260, "unit": "°C"}
    ]},
    {"compound": "N[C@@H](Cc1ncc(P(=O)(O)O)s1)C(=O)O", "note": "[Compound 20, (S)-2-Amino-3-(5-phosphoryl-1,3-thiazol-2-yl)propanoic acid]", "values": [
      {"measurement": "melting point", "result": "196 to 199 °C (dec.)"}
    ]}
  ]
}
